Measured values taken from patent US12522594B2, “2-heteroaryl-3-oxo-2,3-dihydropyridazine-4-carboxamides for the treatment of cancer” (Deutsches Krebsforschungszentrum, priority 2017, dated 2026).
“And” between values parts separate entries of the source, which are not always exact repeats. Equal entries are not always repeated.

How the values were obtained:
Type in all cases: cell-based
AHR [1] = target: T1, AHR (Homo sapiens, UniProt P35869); experiment: In vitro assay 2: agonism in human cell line (transactivation assay, U87 cells, DRE firefly luciferase reporter); design: host or cells: U87 glioblastoma cells, stably transfected with DRE firefly luciferase and renilla reporter constructs; settings: no kynurenic acid, 20 hours, read-out: Assay 2: AHR-luc Hum Agonism IC50
T1 sequence (P35869 11-848): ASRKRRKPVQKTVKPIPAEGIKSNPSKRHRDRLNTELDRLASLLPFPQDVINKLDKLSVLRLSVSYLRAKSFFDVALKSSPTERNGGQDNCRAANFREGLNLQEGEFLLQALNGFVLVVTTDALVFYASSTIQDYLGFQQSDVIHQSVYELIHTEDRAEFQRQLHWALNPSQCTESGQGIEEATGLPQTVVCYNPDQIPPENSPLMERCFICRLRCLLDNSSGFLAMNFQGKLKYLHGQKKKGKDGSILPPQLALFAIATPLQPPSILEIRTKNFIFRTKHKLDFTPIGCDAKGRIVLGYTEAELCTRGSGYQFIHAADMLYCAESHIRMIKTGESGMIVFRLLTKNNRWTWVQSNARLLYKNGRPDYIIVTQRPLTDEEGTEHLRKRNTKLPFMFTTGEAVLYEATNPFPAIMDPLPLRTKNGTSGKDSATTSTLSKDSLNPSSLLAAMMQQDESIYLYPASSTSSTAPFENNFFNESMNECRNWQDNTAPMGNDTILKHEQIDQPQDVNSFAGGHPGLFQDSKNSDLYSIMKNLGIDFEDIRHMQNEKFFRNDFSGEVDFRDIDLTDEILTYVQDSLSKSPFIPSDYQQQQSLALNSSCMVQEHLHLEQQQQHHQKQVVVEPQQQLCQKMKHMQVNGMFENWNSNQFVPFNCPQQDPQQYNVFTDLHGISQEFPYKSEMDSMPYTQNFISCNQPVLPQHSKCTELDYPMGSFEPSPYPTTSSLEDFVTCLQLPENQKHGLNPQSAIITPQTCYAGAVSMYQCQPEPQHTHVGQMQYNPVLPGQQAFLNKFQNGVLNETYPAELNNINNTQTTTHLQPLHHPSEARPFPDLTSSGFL
Outline: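 Agonist readout: DRE firefly luciferase, with constitutive renilla reporter, in stably transfected U87 cells expressing AHR endogenously. Normalization used positive control (300 uM kynurenic acid) and negative control.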

AHR [2] = target: T1, AHR; experiment: In vitro assay 1: antagonism in human cell line (transactivation assay, U87 cells prestimulated with kynurenic acid, DRE firefly luciferase reporter); design: host or cells: U87 glioblastoma cells, stably transfected with DRE firefly luciferase and renilla reporter constructs; settings: 150 uM kynurenic acid, 20 hours, read-out: Assay 1: AHR-luc Hum Antagonism IC50
Outline: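 Antagonism measured after kynurenic acid prestimulation in U87 cells that express AHR endogenously and stably harbor a firefly luciferase gene under DRE control plus a constitutive renilla construct. Positive and negative controls served for normalization.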

human monocytes = experiment: In vitro assay 4: rescue of TNFα production from human primary monocytes (LPS + KA); settings: one value per donor; for Individual Donors Conc of highest rescue: concentration (of 1, 0.3, 0.1 uM tested) at which highest TNFα rescue was observed; for Individual Donors % rescue TNFα normalised to ref cmpd: human monocytes, 10 ng/mL LPS + 200 uM KA, 18 hours, highest percent rescue relative to highest rescue with GNF-351
Method: In Vitro Assay 4: Rescue of TNFα Production from Human Primary Monocytes
The ability of the substances to enhance immune cell activity was determined. The substances were tested for their capacity to reverse KA-induced inhibition of TNFα production by LPS-stimulated human monocytes. Human monocytes were purified by negative selection from donor PBMCs using Miltenyi beads and seeded at 2×10^5 cells/well in complete growth medium (RPMI 1640, 10% FCS). Monocytes were incubated with 10 ng/mL LPS (O127:B8, #L4516, Sigma) and 200 uM KA (#3375, Sigma) and substances were added at concentrations of 1 uM, 0.3 uM and 0.1 uM and cultured for 18 hours. LPS alone served as the positive control. TNFα production in the supernatant was measured by Meso Scale Discovery immunoassay and the ability of the substances to rescue TNFα production was calculated as a percentage of LPS stimulation and KA-induced inhibition and normalized to the donor-specific response with the reference AHR antagonist compound GNF-351 (Smith et al., J Pharmacol Exp Ther, 2011, 338(1):318-27).

AHR [3] = target: T1, AHR; experiment: In vitro assay 3: AHR-regulated CYP1A1 expression in human cell line (U937, qPCR, KA stimulation); settings: U937 cells, 200 uM KA, 6 hours, CYP1A1 expression by qPCR; read-out: Assay 3: Hum CYP1A1 Antagonism IC50
Outline: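 U937 human monocytic cells were stimulated with 200 uM KA for 6 h, with or without compound at eight concentrations from 1 nM to 3 uM, in duplicate. CYP1A1 mRNA was quantified by Taqman qPCR as fold expression normalised to HPRT. Unstimulated cells served as negative control.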

SMILES | IC50 (AHR [1]) [nM] | IC50 (AHR [2]) [nM] | Individual Donors Conc of highest rescue (human monocytes) | Individual Donors % rescue TNFα normalised to ref cmpd (human monocytes) | IC50 (AHR [3]) [nM]
O=C(NCC(O)C(F)F)c1cc(-c2ccc(Cl)cc2)nn(-c2cccnc2)c1=O (racemic) [Example 79, 6-(4-Chlorophenyl)-N-[(2RS)-3,3-difluoro-2-hydroxypropyl]-3-oxo-2-(pyridin-3-yl)-2,3-dihydropyridazine-4-carboxamide] | > 20000 | 39.5 | 0.3 µM and 0.1 µM | 76% and 63% | 80.4
CCC(CO)NC(=O)c1cc(-c2ccc(C)cc2)nn(-c2cnn(C)c2)c1=O (single isomer, unassigned) [Example 5, N-(1-Hydroxybutan-2-yl)-6-(4-methylphenyl)-2-(1-methyl-1H-pyrazol-4-yl)-3-oxo-2,3-dihydropyridazine-4-carboxamide] | > 20000 | 5.99 | 1 µM | 67% and 99% and 61% | 3.45
Cn1cc(-n2nc(-c3ccc(Cl)cc3)cc(C(=O)NCC(O)C(F)F)c2=O)cn1 (single isomer, unassigned; (-)) [Example 22, (−)-6-(4-Chlorophenyl)-N-(3,3-difluoro-2-hydroxypropyl)-2-(1-methyl-1H-pyrazol-4-yl)-3-oxo-2,3-dihydropyridazine-4-carboxamide] | > 20000 | 20 | 1 µM | 66% and 71% | 11.2
COCC(O)CNC(=O)c1cc(-c2ccc(Cl)cc2)nn(-c2cnn(C)c2)c1=O (single isomer, unassigned; (-)) [Example 25, (−)-6-(4-Chlorophenyl)-11-(2-hydroxy-3-methoxypropyl)-2-(1-methyl-1H-pyrazol-4-yl)-3-oxo-2,3-dihydropyridazine-4-carboxamide] | > 20000 | 68.2 | 1 µM | 46% and 53% | 91.1
Cc1ccc(-c2cc(C(=O)NCC(O)C(F)(F)F)c(=O)n(-c3cnn(C)c3)n2)cc1 (single isomer, unassigned; enantiomer 2) [Example 12, (+)-6-(4-Methylphenyl)-2-(1-methyl-1H-pyrazol-4-yl)-3-oxo-N-(3,3,3-trifluoro-2-hydroxypropyl)-2,3-dihydropyridazine-4-carboxamide, Enantiomer 2] | > 20000 | 23.2 | 0.1 μM (2×) and 1 μM and 0.3 μM | 74% and 122% and 213% and 109% | 18.5
Cc1ccc(-c2cc(C(=O)N[C@@H](C)CO)c(=O)n(-c3cnn(C)c3)n2)cc1 [Example 8, N-[(2S)-1-Hydroxypropan-2-yl]-6-(4-methylphenyl)-2-(1-methyl-1H-pyrazol-4-yl)-3-oxo-2,3-dihydropyridazine-4-carboxamide] | > 20000 | 19 | 1 μM (4×) and 0.1 μM | 99% and 55% and 104% and 109% and 36% | 15.8
Cc1ccc(-c2cc(C(=O)NCC(O)C(F)F)c(=O)n(-c3cnn(C)c3)n2)cc1 (stereo not drawn) [Example 13, N-(3,3-Difluoro-2-hydroxypropyl)-6-(4-methylphenyl)-2-(1-methyl-1H-pyrazol-4-yl)-3-oxo-2,3-dihydropyridazine-4-carboxamide] | > 20000 | 32.5 | 1 µM | 24% and 85% | 20
CC(C)[C@@H](CO)NC(=O)c1cc(-c2ccc(Cl)cc2)nn(-c2cnn(C)c2)c1=O [Example 16, 6-(4-Chlorophenyl)-N-[(2S)-1-hydroxy-3-methylbutan-2-yl]-2-(1-methyl-1H-pyrazol-4-yl)-3-oxo-2,3-dihydropyridazine-4-carboxamide] | > 20000 | 3.69 | 1 µM | 249% and 165% | 2.49
Cn1cc(-n2nc(-c3ccc(Cl)cc3)cc(C(=O)NCC(O)C(F)(F)F)c2=O)cn1 (stereo not drawn) [Example 18, 6-(4-Chlorophenyl)-2-(1-methyl-1H-pyrazol-4-yl)-3-oxo-N-(3,3,3-trifluoro-2-hydroxypropyl)-2,3-dihydropyridazine-4-carboxamide] | > 20000 | 14.2 | 1 μM (2×) and 0.3 μM (2×) | 83% and 73% and 76% and 105% | 11.3
Cn1cc(-n2nc(-c3ccc(Cl)cc3)cc(C(=O)NCC(O)C(F)F)c2=O)cn1 (stereo not drawn) [Example 21, 6-(4-Chlorophenyl)-N-(3,3-difluoro-2-hydroxypropyl)-2-(1-methyl-1H-pyrazol-4-yl)-3-oxo-2,3-dihydropyridazine-4-carboxamide] | > 20000 | 28 | 0.3 µM and 1 µM | 87% and 77% | 18.2
COCC(O)CNC(=O)c1cc(-c2ccc(Cl)cc2)nn(-c2cnn(C)c2)c1=O (stereo not drawn) [Example 24, 6-(4-Chlorophenyl)-N-(2-hydroxy-3-methoxypropyl)-2-(1-methyl-1H-pyrazol-4-yl)-3-oxo-2,3-dihydropyridazine-4-carboxamide] | > 20000 | 87.5 | 0.3 µM and 1 µM | 84% and 59% | 
Cn1cc(-n2nc(-c3ccc(Cl)cc3)cc(C(=O)NC[C@H](O)CO)c2=O)cn1 [Example 27, 6-(4-Chlorophenyl)-N-[(2S)-2,3-dihydroxypropyl]-2-(1-methyl-1H-pyrazol-4-yl)-3-oxo-2,3-dihydropyridazine-4-carboxamide] | > 20000 | 177 | 1 µM and 0.3 µM | 87% and 105% | 
COC[C@H](CO)NC(=O)c1cc(-c2ccc(Cl)cc2)nn(-c2cnn(C)c2)c1=O [Example 29, 6-(4-Chlorophenyl)-N-[(2S)-1-hydroxy-3-methoxypropan-2-yl]-2-(1-methyl-1H-pyrazol-4-yl)-3-oxo-2,3-dihydropyridazine-4-carboxamide] | > 20000 | 76.1 | 1 µM | 66% and 88% | 
C[C@H](CO)NC(=O)c1cc(-c2ccc(Cl)cc2)nn(-c2cccnc2)c1=O [Example 69, 6-(4-Chlorophenyl)-N-[(2R)-1-hydroxypropan-2-yl]-3-oxo-2-(pyridin-3-yl)-2,3-dihydropyridazine-4-carboxamide] | > 20000 | 214 | 0.1 µM | 88% and 97% | 
